Starred links: 1 amine or outer side, 2 acyl side, 3 side chain; linkers in the order of their positions; H or OH if unused. Positions of bridges follow the written chain, without caps; N, C: chain ends. Non-standard residues stand in square brackets, D forms with d. Residues, ends and D or L forms follow the SMILES beside them. Triazole bridges read from a SMILES are 1,4-linked. Phe(3-CH2NH2) = O=C([C@H](Cc1cccc(CN[*:3])c1)N[*:1])[*:2]; Phe(4-COOH) = N[C@@H](Cc1ccc(C(=O)O)cc1)C(=O)O; Pyridine(2,6-diCH2) = c1cc(C[*:1])nc(C[*:2])c1; Trp(5-F) = N[C@@H](Cc1c[nH]c2ccc(F)cc12)C(=O)O; Trp(6-F) = N[C@@H](Cc1c[nH]c2cc(F)ccc12)C(=O)O; Phe(4-CH2NH2) = NCc1ccc(C[C@H](N)C(=O)O)cc1; Trp(1-Me) = Cn1cc(C[C@H](N)C(=O)O)c2ccccc21; X9 = CS[C@H]1C[C@@H](C(=O)[*:2])N([*:1])C1; Pro(cis-4-F) = O=C(O)[C@@H]1C[C@H](F)CN1; Lys(N3) = [N-]=[N+]=NCCCC[C@H](N)C(=O)O; X4 = O=C(CCSCc1cccc(CSCCN[*:1])c1)[*:2]; 2Nal = N[C@@H](Cc1ccc2ccccc2c1)C(=O)O; mXylylene = c1cc(C[*:1])cc(C[*:2])c1; d(aThr) = C[C@@H](O)[C@@H](N)C(=O)O; X6 = O=C(Cc1ccc(CN[*:2])cc1)[*:1]; NMeT = CN[C@H](C(=O)O)[C@@H](C)O; Aad = N[C@@H](CCCC(=O)O)C(=O)O; dNMeL = CN[C@H](CC(C)C)C(=O)O; αMeP = C[C@@]1(C(=O)O)CCCN1; dPra = C#CC[C@@H](N)C(=O)O; Orn = NCCC[C@H](N)C(=O)O; Nva = CCC[C@H](N)C(=O)O; Mpa = O=C(O)CCS
Assays:
[1] = target: human PCSK9 / human LDLR EGFa domain interaction (Homo sapiens (Human), UniProt Q8NBP7); experiment: TR-FRET assay of inhibition of the PCSK9-LDLR protein-protein interaction; format: binding; details: TR-FRET, 20 nM human PCSK9, 20 nM human LDLR EGFa domain, 2 hours room temperature; read-out: IC50
Summary of the method: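 20 nM biotin-avitag PCSK9 + 20 nM His-LDLR EGFa; 5 nM Ulight-SA / 5 nM Eu-anti-His; 2 h RT; HEPES 50 mM, NaCl 150 mM, CaCl2 5 mM, 0.01% BSA, 0.01% P20. Half-maximal inhibition, 4-parameter fit.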

PCSK9 = PCSK9 (Homo sapiens (Human), UniProt Q8NBP7); experiment: PCSK9 Alexa FRET Standard assay (displacement of AlexaFluor647 tagged cyclic peptide Reagent A); format: binding; details: PCSK9 Alexa FRET Standard assay, 0.5 nM PCSK9, 20 nM AF cyclic peptide Reagent A; read-out: IC50
Summary of the method: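 TR-FRET displacement: 0.5 nM biotinylated PCSK9 with 1.25 nM Strep-Eu and 20 nM AlexaFluor-tagged cyclic peptide (final) in 50 mM HEPES pH 7.4, 0.15 M NaCl, 5 mM CaCl2, 0.01% BSA, 0.01% P20, ≥2 h at room temperature. IC50 from sigmoidal fit, converted to Ki via peptide KD; falling Eu counts flagged false positives.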

Sequence of human PCSK9 / human LDLR EGFa domain interaction (Q8NBP7 153-692): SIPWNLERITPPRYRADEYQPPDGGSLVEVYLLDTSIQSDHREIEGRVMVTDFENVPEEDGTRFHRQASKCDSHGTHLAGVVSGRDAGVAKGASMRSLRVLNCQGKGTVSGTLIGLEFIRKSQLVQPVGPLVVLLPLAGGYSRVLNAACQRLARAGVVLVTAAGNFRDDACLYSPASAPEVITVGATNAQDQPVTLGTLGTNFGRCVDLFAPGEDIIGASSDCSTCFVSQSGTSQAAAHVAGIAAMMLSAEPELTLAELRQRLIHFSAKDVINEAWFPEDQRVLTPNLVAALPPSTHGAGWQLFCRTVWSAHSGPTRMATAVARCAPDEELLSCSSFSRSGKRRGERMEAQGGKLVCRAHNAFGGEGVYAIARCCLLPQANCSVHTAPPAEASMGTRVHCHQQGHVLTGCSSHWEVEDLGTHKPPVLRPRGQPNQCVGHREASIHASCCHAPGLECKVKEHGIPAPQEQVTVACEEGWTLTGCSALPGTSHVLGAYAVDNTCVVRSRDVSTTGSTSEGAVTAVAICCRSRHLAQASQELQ
Sequence of human PCSK9 / human LDLR EGFa domain interaction (Q8NBP7 31-152 partner): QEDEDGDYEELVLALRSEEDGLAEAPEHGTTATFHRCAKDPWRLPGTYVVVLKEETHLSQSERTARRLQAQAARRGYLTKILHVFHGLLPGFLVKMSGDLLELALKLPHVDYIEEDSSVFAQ
Sequence of PCSK9 (Q8NBP7 153-692): as the sequence (Q8NBP7 153-692) above

| Compound | IC50 [1] [nM] | IC50 (PCSK9) [nM] |
| --- | --- | --- |
| COc1ccc(C[C@@H]2NC(=O)[C@H](Cc3cnc[nH]3)NC(=O)[C@H](CC(=O)O)NC(=O)[C@H](Cc3c[nH]c4ccc(F)cc34)NC(=O)[C@H](Cc3c[nH]c4ccc(F)cc34)NC(=O)[C@@H](C)NC(=O)[C@H](NC(C)=O)CCCCNC(=O)Cc3ccc(cc3)CNC(=O)CCC[C@@H](C(N)=O)NC(=O)[C@]3(C)CCCN3C2=O)cc1 [Compound 523] (Ac-[dK][dA][Trp(5-F)][Trp(5-F)]DHY(Me)[αMeP][Aad]-NH2; linker 1-9 via X6) | 0.1 to 100 | 100 to 1000 |
| CC(=O)N[C@H]1CCCNC(=O)c2ccc(cc2)C[C@@H](C(N)=O)NC(=O)[C@]2(C)CCCN2C(=O)[C@H](Cc2ccc(O)cc2)NC(=O)[C@H](Cc2cnc[nH]2)NC(=O)[C@H](CC(=O)O)NC(=O)[C@H](Cc2c[nH]c3cc(F)ccc23)NC(=O)[C@H](Cc2c[nH]c3ccc(F)cc23)NC(=O)CNC(=O)[C@H](C)NC1=O [Compound 314] (Ac-[Orn]AG[Trp(5-F)][Trp(6-F)]DHY[αMeP][Phe(4-COOH)]-NH2; lactam 1-10) | 100 to 1000 | 1000 to 12100 |
| CCC[C@@H]1NC(=O)CCSCc2cccc(c2)CSC[C@@H](C(N)=O)NC(=O)[C@@H]2CCCN2C(=O)[C@H](Cc2ccc(OC)cc2)NC(=O)[C@H]([C@@H](C)OC)N(C)C(=O)[C@@H]2CCCN2C(=O)[C@H](Cc2cn(C)c3ccccc23)NC(=O)[C@H](Cc2ccc3ccccc3c2)NC(=O)[C@@H](CC(C)C)N(C)C1=O [Compound 046] ([Mpa][Nva][dNMeL][2Nal][Trp(1-Me)]P[NMeT](Me)Y(Me)PC-NH2; linker 1-10 via mXylylene) | 0.1 to 100 | 0.11 to 100 |
| COc1ccc(C[C@@H]2NC(=O)[C@@H]([C@@H](C)O)NC(=O)[C@H](CC(=O)O)NC(=O)[C@H](Cc3c[nH]c4ccc(F)cc34)NC(=O)[C@H](Cc3cccc(CN)c3)NC(=O)[C@@H](C)NC(=O)[C@H](C)NC(=O)CCSCc3cccc(c3)CSCCNC(=O)[C@]3(C)CCCN3C2=O)cc1 [Compound 384] (cyclo(A[dA][Phe(3-CH2NH2)][Trp(5-F)]D[d(aThr)]Y(Me)[αMeP][X4])) | 21000 to 50000 | 21000 to 50000 |
| CC(C)[C@H]1NC(=O)[C@H](CCCCN)NC(=O)CCSCc2cccc(c2)CSC[C@@H](C(N)=O)NC(=O)[C@]2(C)CCCN2C(=O)[C@H](Cc2ccc(O)cc2)NC(=O)[C@H]([C@@H](C)O)NC(=O)[C@@H]2CCCN2C(=O)[C@H](Cc2c[nH]c3ccc(F)cc23)NC(=O)[C@H](Cc2c[nH]c3ccc(F)cc23)NC1=O [Compound 052] ([Mpa]K[dV][Trp(5-F)][Trp(5-F)]PTY[αMeP]C-NH2; linker 1-10 via mXylylene) | 1000 to 12100 | 1000 to 12100 |
| COc1ccc(C[C@@H]2NC(=O)[C@H]([C@@H](C)O)NC(=O)[C@@H]3CCCN3C(=O)[C@H](Cc3c[nH]c4ccc(F)cc34)NC(=O)[C@H](Cc3c[nH]c4ccc(F)cc34)NC(=O)[C@@H](C)NC(=O)[C@H](CCCCN)NC(=O)CCSCc3cccc(n3)CSC[C@@H](C(N)=O)NC(=O)[C@]3(C)CCCN3C2=O)cc1 [Compound 065] ([Mpa]K[dA][Trp(5-F)][Trp(5-F)]PTY(Me)[αMeP]C-NH2; linker 1-10 via Pyridine(2,6-diCH2)) | 0.1 to 100 | 100 to 1000 |

Second part, the compound after the results:

| IC50 [1] [nM] | IC50 (PCSK9) [nM] | Compound |
| --- | --- | --- |
| 0.1 to 100 | 100 to 1000 | CS[C@H]1C[C@H]2C(=O)N[C@H](C(N)=O)CSCc3cccc(c3)CSCCC(=O)N[C@@H](CCCCN)C(=O)NCC(=O)N[C@@H](Cc3c[nH]c4ccc(F)cc34)C(=O)N[C@@H](Cc3c[nH]c4ccc(F)cc34)C(=O)N[C@@H](CC(=O)O)C(=O)N[C@@H](Cc3cnc[nH]3)C(=O)N[C@@H](Cc3ccc(O)cc3)C(=O)N2C1 [Compound 363] ([Mpa]KG[Trp(5-F)][Trp(5-F)]DHY[X9]C-NH2; linker 1-10 via mXylylene) |
| 0.1 to 100 | 100 to 1000 | CC(=O)N[C@@H]1Cc2cn(nn2)CCCC[C@@H](C(N)=O)NC(=O)[C@]2(C)CCCN2C(=O)[C@H](Cc2ccc(O)cc2)NC(=O)[C@H](Cc2cnc[nH]2)NC(=O)[C@H](CC(=O)O)NC(=O)[C@H](Cc2c[nH]c3ccc(F)cc23)NC(=O)[C@H](Cc2c[nH]c3ccc(F)cc23)NC(=O)CNC1=O [Compound 336] (Ac-[dPra]G[Trp(5-F)][Trp(5-F)]DHY[αMeP][Lys(N3)]-NH2; triazole 1-9) |
| 0.1 to 100 | 0.11 to 100 | COc1ccc(C[C@@H]2NC(=O)[C@H]([C@@H](C)O)NC(=O)[C@@H]3C[C@H](F)CN3C(=O)[C@H](Cc3c[nH]c4ccc(F)cc34)NC(=O)[C@H](Cc3c[nH]c4ccc(F)cc34)NC(=O)[C@@H](C)NC(=O)[C@H](CCCCN)NC(=O)[C@@H](NC(C)=O)CC(=O)NCc3ccc(cc3)C[C@@H](C(N)=O)NC(=O)[C@]3(C)CCCN3C2=O)cc1 [Compound 066] (Ac-DK[dA][Trp(5-F)][Trp(5-F)][Pro(cis-4-F)]TY(Me)[αMeP][Phe(4-CH2NH2)]-NH2; lactam 1-10) |

Source: US11530244B2, “Cyclic polypeptides for PCSK9 inhibition” (priority 2018, dated 2022)
